Tested on: M. gallisepticum (MG) field-isolated strain T
Assay: In vivo test on chickens inoculated with M. gallisepticum in right air sacs
Conditions: oral, 5 chickens tested, autopsy 7th day

Structure (SMILES)	No. of lesions of right air sacs: -- (1 × 50 mg/kg)	No. of lesions of right air sacs: Moderate to severe (1 × 50 mg/kg)	No. of lesions of right air sacs: Slight (1 × 50 mg/kg)	No. of lesions of right air sacs: -- (1 × 100 mg/kg)	No. of lesions of right air sacs: Moderate to severe (1 × 100 mg/kg)	No. of lesions of right air sacs: Slight (1 × 100 mg/kg)	No. of lesions of right air sacs: -- (1 × 200 mg/kg)	No. of lesions of right air sacs: Moderate to severe (1 × 200 mg/kg)	No. of lesions of right air sacs: Slight (1 × 200 mg/kg)
CN(C)[C@@H]1C(O)=C(C(N)=O)C(=O)[C@@]2(O)C(O)=C3C(=O)c4c(O)ccc(Cl)c4[C@@](C)(O)[C@H]3C[C@@H]12 [CTC, Chlortetracycline]	1	3	1	2	2	1	–	–	–
CC[C@H]1OC(=O)C[C@@H](O)[C@H](C)[C@@H](O[C@@H]2O[C@H](C)[C@@H](O[C@H]3C[C@@](C)(O)[C@@H](O)[C@H](C)O3)[C@H](N(C)C)[C@H]2O)[C@@H](CC=O)C[C@@H](C)C(=O)/C=C/C(C)=C/[C@@H]1CO[C@@H]1O[C@H](C)[C@@H](O)[C@@H](OC)[C@H]1OC [TS, Tylosin]	–	–	–	1	4	0	0	2	3

From patent publication US5707838A, “Antibiotic produced by Pseudomonas sp. and process for the preparation thereof” (priority 1994, dated 1998)
